Test results as given in PubChem BioAssay (NCI).
“And” between values parts separate entries of the source, which are not always exact repeats. Equal entries are not always repeated.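 Grown in 96-well plates, cells were treated for 48 hours with each compound at five concentrations. Insufficient inhibition: endpoint recorded as highest concentration tested. GI50 marks 50% less growth. TGI denotes the concentration required for complete inhibition of growth.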

Key:
Assay in all cases: DTP human tumour cell line panel, 48 h
786-0 renal = test system: 786-0 renal
EKVX NSCLC = test system: EKVX NSCLC
HCT-116 colon = test system: HCT-116 colon
HOP-62 NSCLC = test system: HOP-62 NSCLC
M14 melanoma = test system: M14 melanoma
NCI/ADR-RES ovarian = test system: NCI/ADR-RES ovarian
PC-3 prostate = test system: PC-3 prostate
SF-539 CNS = test system: SF-539 CNS
SN12C renal = test system: SN12C renal
UACC-257 melanoma = test system: UACC-257 melanoma

Row | SMILES | GI50 (786-0 renal) [µM] | TGI (786-0 renal) | GI50 (EKVX NSCLC) [µM] | TGI (EKVX NSCLC) | GI50 (HCT-116 colon) [µM] | TGI (HCT-116 colon) | GI50 (HOP-62 NSCLC) [µM] | TGI (HOP-62 NSCLC) | GI50 (M14 melanoma) [µM] | TGI (M14 melanoma) | GI50 (NCI/ADR-RES ovarian) [µM] | TGI (NCI/ADR-RES ovarian) | GI50 (PC-3 prostate) [µM] | TGI (PC-3 prostate) | GI50 (SF-539 CNS) [µM] | TGI (SF-539 CNS) [µM] | GI50 (SN12C renal) [µM] | TGI (SN12C renal) | GI50 (UACC-257 melanoma) [µM] | TGI (UACC-257 melanoma)
1 | O=C1c2ccccc2-c2c1c1ccccc1c(=O)n2CCCNCCCn1ccnc1 | 0.352 | 2.24 µM | 4.75 | 12.2 µM | 0.598 | 2.01 µM | 0.29 | 1.13 µM | 0.51 | 1.13 µM | 1.66 | 4.45 µM | 1.58 | 9.75 µM | 0.908 | 2.48 | 0.367 | 1.29 µM | 4.62 | 23.1 µM
2 | Nc1ccc(N(S(=O)(=O)c2ccccc2)S(=O)(=O)c2ccccc2)c(Cl)c1 | – | > 100 µM | – | > 100 µM | – | > 100 µM | – | > 100 µM | – | > 100 µM | – | > 100 µM | – | > 100 µM | – | > 100 | – | > 100 µM | – | > 100 µM
3 | CC(O)c1cccc(NCc2c3ccccc3c(=O)n3c2oc2ccccc23)c1 (configuration not stated) | 4.18 | 19.2 µM | 3.87 | 19.3 µM | 3.13 | 14.4 µM | 3.01 | 13.6 µM | 4.5 | 25.2 µM | 11.8 | 28.5 µM | 7.11 | > 100 µM | 1.37 | 3.43 | 15.5 | > 100 µM | 8.24 | 47.7 µM
4 | O=Cc1ccc(-c2cc(C=O)c(-c3cccs3)[nH]2)s1 | > 100 | 75 µM and > 100 µM | 47.8 | 75 µM and > 100 µM | 64.2 | 75 µM and > 100 µM | > 100 | 72.5 µM and > 100 µM | 27.5 | 75 µM and > 100 µM | 68.3 | 75 µM and > 100 µM | > 100 | 75 µM and > 100 µM | – | 75 | – | 75 µM and > 100 µM | > 100 | 75 µM and > 100 µM
5 | O=C1Nc2ccc(C(=O)c3ccco3)cc2/C1=C/c1cc(Cl)c(O)c(Cl)c1 | 4.29 | 11.6 µM | 11 | > 25 µM | 1.87 | > 25 µM | 7.45 | > 22.1 µM | 1.45 | 13.3 µM | 9.61 | > 25 µM | 6.52 | > 24.1 µM | 3.93 | 9.49 | 6.53 | > 25 µM | 4.79 | 17.9 µM
6 | CCOC(=O)C(Cc1c[nH]c2ccc(N)cc12)(NC(C)=O)C(=O)OCC | > 1000 | > 1000 µM | > 1000 | > 1000 µM | > 1000 | > 1000 µM | > 1000 | > 1000 µM | – | > 1000 µM | > 1000 | > 1000 µM | > 1000 | > 1000 µM | > 1000 | > 1000 | > 1000 | > 1000 µM | > 1000 | > 1000 µM
7 | Cc1cc(I)cc(CN(C)CCCN2CCSCC2)c1O | 21.2 | 53.3 µM | 29.4 | > 100 µM | 13.3 | 30.8 µM | 18.4 | 41.9 µM | 17.3 | 33.2 µM | 24.8 | 76.5 µM | 29.8 | > 100 µM | 23.4 | 62.7 | 76.6 | > 100 µM | 26.4 | 92.1 µM
